Measurements published in paper PMC10492809, “A Bischler-Napieralski and homo-Mannich sequence enables diversified syntheses of sarpagine alkaloids and analogues” (Nature Communications, 2023).
“And” between values parts separate entries of the source, which are not always exact repeats. Equal entries are not always repeated. Where two headings read alike, the source gives them in different places.

What was measured:
Assay type in all cases: cell-based
MIA PaCa-2 = assay: MTT cell viability assay, MIA PaCa-2
Procedure: (§1) All cell lines were cultured at 37 °C with 5% CO2 in a humidified incubator. HeLa cells were grown in MEM (Gibco) supplemented with 10% fetal bovine serum (FBS, Hyclone) and 1% penicillin/streptomycin (Gibco). MIA PaCa-2, MDA-MB-231, A549, MCF-7, A375 and BEAS-2B cells were grown in DMEM (Gibco) supplemented with 10% FBS and 1% penicillin/streptomycin. CT26, and HCT116 cells were grown in RPMI-1640 supplemented with 10% FBS and 1% penicillin/streptomycin. All cell lines were purchased from the National Collection of Authenticated Cell Cultures (China).
(§2) The antiproliferative activities of the prepared compounds against tested cell lines were evaluated using a standard (MTT)-based colorimetric assay. Cells were plated at a density of 3000 cells/well in 96-well plates and allowed to adhere overnight. Then cells were treated with varying concentrations of synthesized compounds for 72 h. At the end of treatment, 20 μL of thiazolyl blue tetrazolium bromide (MTT) solution (5 mg/mL) was added to each well. Cells were incubated for an additional 4 h at 37 °C and then the medium was removed and replaced with 200 μL of DMSO. The absorbance (OD490) was read on a microplate reader (SpectraMax i3x, Molecular Devices, US). In all experiments, three replicate wells were used for each drug concentration. Each assay was performed at least three times. The IC50 values were calculated by GraphPad Prism 9, which were the mean values derived from three independent experiments.

MDA-MB-231 = assay: MTT cell viability assay, MDA-MB-231
Procedure: as §1, §2

Hela = assay: MTT cell viability assay, Hela
Procedure: as §1, §2

A549 = assay: MTT cell viability assay, A549
Procedure: as §1, §2

MCF-7 = assay: MTT cell viability assay, MCF-7
Procedure: as §1, §2

CT26 = assay: MTT cell viability assay, CT26
Procedure: as §1, §2

HCT 116 = assay: MTT cell viability assay, HCT 116
Procedure: as §1, §2

A375 = assay: MTT cell viability assay, A375
Procedure: as §1, §2

[1] = MTT cytotoxicity towards normal cells, BEAS-2B; details: human; for IC50 at 72 h: BEAS-2B lung epithelial cells (normal cells), source data sheet, single values of three experiments; for CC50 at 72 h: BEAS-2B lung epithelial cells, MTT, cytotoxicity towards normal cells, mean of at least three independent experiments
Procedure: as §1, §2

cancer cell lines = assay: In vitro cancer cell assays (antiproliferation, cell line not given); details: for loss in antiproliferation activity on replacing the aldehyde group: SAR statement in words
Procedure: as §1, §2

[2] = tested on: lung epithelial BEAS-2B cells; assay: MTT cytotoxicity towards normal cells, BEAS-2B
Procedure: as §1, §2

[3] = Homo sapiens, MIA PaCa-2, 72 h, MTT, 72 h, mean of at least three independent experiments, read-out: IC50 MIA PaCa-2
[4] = Homo sapiens, MIA PaCa-2, source data sheet, single values of three experiments, read-out: MTT IC50 MIA PaCa-2
[5] = source data sheet, single values of three experiments, read-out: MTT IC50 MIA PaCa-2
[6] = Homo sapiens, MDA-MB-231, 72 h, MTT, 72 h, mean of at least three independent experiments, read-out: IC50 MDA-MB-231
[7] = Homo sapiens, MDA-MB-231, source data sheet, single values of three experiments, read-out: MTT IC50 MDA-MB-231
[8] = source data sheet, single values of three experiments, read-out: MTT IC50 MDA-MB-231
[9] = Homo sapiens, HeLa, 72 h, MTT, 72 h, mean of at least three independent experiments, read-out: IC50 Hela
[10] = Homo sapiens, HeLa, source data sheet, single values of three experiments, read-out: MTT IC50 Hela
[11] = source data sheet, single values of three experiments, read-out: MTT IC50 Hela
[12] = Homo sapiens, A549, 72 h, MTT, 72 h, mean of at least three independent experiments, read-out: IC50 A549
[13] = Homo sapiens, A549, source data sheet, single values of three experiments, read-out: MTT IC50 A549
[14] = source data sheet, single values of three experiments, read-out: MTT IC50 A549
[15] = Homo sapiens, MCF7, 72 h, MTT, 72 h, mean of at least three independent experiments, read-out: IC50 MCF-7
[16] = Homo sapiens, MCF7, source data sheet, single values of three experiments, read-out: MTT IC50 MCF-7
[17] = source data sheet, single values of three experiments, read-out: MTT IC50 MCF-7
[18] = Mus musculus, CT26, 72 h, MTT, 72 h, mean of at least three independent experiments, read-out: IC50 CT26
[19] = Mus musculus, CT26, source data sheet, single values of three experiments, read-out: MTT IC50 CT-26
[20] = source data sheet, single values of three experiments, read-out: MTT IC50 CT-26
[21] = Homo sapiens, HCT-116, 72 h, MTT, 72 h, mean of at least three independent experiments, read-out: IC50 HCT 116
[22] = Homo sapiens, HCT-116, source data sheet, single values of three experiments, read-out: MTT IC50 HCT-116
[23] = source data sheet, single values of three experiments, read-out: MTT IC50 HCT-116
[24] = Homo sapiens, A-375, 72 h, MTT, 72 h, mean of at least three independent experiments, read-out: IC50 A375
[25] = Homo sapiens, A-375, source data sheet, single values of three experiments, read-out: MTT IC50 A375
[26] = source data sheet, single values of three experiments, read-out: MTT IC50 A375

SMILES | IC50 (MIA PaCa-2; [3]) | IC50 (MIA PaCa-2; [4]) | IC50 (MIA PaCa-2; [5]) | IC50 (MDA-MB-231; [6]) | IC50 (MDA-MB-231; [7]) | IC50 (MDA-MB-231; [8]) | IC50 (Hela; [9]) | IC50 (Hela; [10]) | IC50 (Hela; [11]) | IC50 (A549; [12]) | IC50 (A549; [13]) | IC50 (A549; [14]) | IC50 (MCF-7; [15]) | IC50 (MCF-7; [16]) | IC50 (MCF-7; [17]) | IC50 (CT26; [18]) | IC50 (CT26; [19]) | IC50 (CT26; [20]) | IC50 (HCT 116; [23]) | IC50 (A375; [26]) | also measured
CC=C1CN2C3CC1C(C=O)C2Cc1c3[nH]c2ccccc12 (stereo not drawn) [vellosimine (4), vellosimine] | 32.6 µM | 35.9 µM | 29.6 µM and 32.2 µM | 21.2 µM | 23 µM | 18.2 µM and 22.2 µM | 24.1 µM | 27.5 µM | 22.6 µM and 22.2 µM | 23.2 µM | 22.2 µM | 26.1 µM and 21.4 µM | 39.2 µM | 38.9 µM | 42.7 µM and 36 µM | 20.2 µM | 18.9 µM | 23.2 µM and 18.5 µM | 25.2 µM and 27.8 µM | 26.2 µM and 27.5 µM | IC50 (HCT 116; [21]): 27.5 µM; IC50 (HCT 116; [22]): 29.6 µM; IC50 (A375; [24]): 28.6 µM; IC50 (A375; [25]): 32.1 µM; IC50 at 72 h [1]: > 100 µM; CC50 at 72 h [1]: > 100 µM; antiproliferation activity in the in vitro cancer cell assays (cancer cell lines; result in words): moderate antiproliferation activity
C=C=C1CN2[C@H]3C[C@H]1[C@H](C=O)[C@@H]2Cc1c3n(S(=O)(=O)c2ccc(C)cc2)c2cc(F)ccc12 [Compound 15aj] | 24.1 µM | 24.2 µM | 22.1 µM and 26 µM | 14 µM | 16.4 µM | 11.5 µM and 14.1 µM | 18.8 µM | 21.3 µM | 16.8 µM and 18.3 µM | 26.2 µM | 28.5 µM | 27.4 µM and 22.6 µM | 30.3 µM | 33.5 µM | 28.1 µM and 29.2 µM | 24.3 µM | 23.7 µM | 23.2 µM and 26 µM | 20.3 µM and 16.2 µM | 11.2 µM and 13.4 µM | IC50 (HCT 116; [21]): 18.9 µM; IC50 (HCT 116; [22]): 20.1 µM; IC50 (A375; [24]): 13.4 µM; IC50 (A375; [25]): 15.7 µM; IC50 at 72 h [1]: > 100 µM; CC50 at 72 h [1]: > 100 µM
C=C=C1CN2[C@H]3C[C@H]1[C@H](C=O)[C@@H]2Cc1c3n(S(=O)(=O)c2ccc(C)cc2)c2ccc(Br)cc12 [Compound 15af] | 20.2 µM | 20.5 µM | 23 µM and 17 µM | 5.39 µM | 5.02 µM | 7.05 µM and 4.11 µM | 8.56 µM | 9.81 µM | 7.52 µM and 8.35 µM | 14.8 µM | 17 µM | 12.5 µM and 14.9 µM | 18.1 µM | 15 µM | 20.1 µM and 19.2 µM | 15.8 µM | 13.8 µM | 18.8 µM and 14.8 µM | 8.41 µM and 9.85 µM | 9.41 µM and 6.25 µM | IC50 (HCT 116; [21]): 9.98 µM; IC50 (HCT 116; [22]): 11.7 µM; IC50 (A375; [24]): 7.51 µM; IC50 (A375; [25]): 6.87 µM; IC50 at 72 h [1]: > 100 µM; CC50 at 72 h [1]: > 100 µM
C=C=C1CN2[C@H]3C[C@H]1[C@H](C(=O)O)[C@@H]2Cc1c3n(S(=O)(=O)c2ccc(C)cc2)c2ccccc12 [Compound 15an] | – | – | – | – | – | – | – | – | – | – | – | – | – | – | – | – | – | – | – | – | loss in antiproliferation activity on replacing the aldehyde group (cancer cell lines): complete
C=C=C1CN2[C@H]3C[C@H]1[C@H](CO)[C@@H]2Cc1c3n(S(=O)(=O)c2ccc(C)cc2)c2ccccc12 [Compound 15ao] | – | – | – | – | – | – | – | – | – | – | – | – | – | – | – | – | – | – | – | – | loss in antiproliferation activity on replacing the aldehyde group (cancer cell lines): complete
C=C=C1CN2[C@H]3C[C@H]1[C@H](C=O)[C@@H]2Cc1c3n(S(=O)(=O)c2ccc(C)cc2)c2ccccc12 [Compound 15ad] | – | – | 12.3 µM and 14 µM and 10.1 µM | – | – | 3.01 µM and 3.83 µM and 2.38 µM | – | – | 5.18 µM and 4.35 µM and 3.58 µM | – | – | 9.24 µM and 12.1 µM and 10 µM | – | – | 10.5 µM and 14 µM and 9.22 µM | – | – | 10 µM and 7.29 µM and 7.11 µM | 6.65 µM and 4.08 µM and 5.02 µM | 5.01 µM and 2.69 µM and 3.01 µM | IC50 (MIA PaCa-2; MTT, 72 h, mean of at least three independent experiments, read-out: IC50 MIA PaCa-2): 12.1 µM; IC50 (MDA-MB-231; MTT, 72 h, mean of at least three independent experiments, read-out: IC50 MDA-MB-231): 3.07 µM; IC50 (Hela; MTT, 72 h, mean of at least three independent experiments, read-out: IC50 Hela): 4.37 µM; IC50 (A549; MTT, 72 h, mean of at least three independent experiments, read-out: IC50 A549): 10.4 µM; IC50 (MCF-7; MTT, 72 h, mean of at least three independent experiments, read-out: IC50 MCF-7): 11.3 µM; IC50 (CT26; MTT, 72 h, mean of at least three independent experiments, read-out: IC50 CT26): 8.14 µM; IC50 (HCT 116; MTT, 72 h, mean of at least three independent experiments, read-out: IC50 HCT 116): 5.25 µM; IC50 (A375; MTT, 72 h, mean of at least three independent experiments, read-out: IC50 A375): 3.57 µM; CC50 ([2]; MTT, 72 h, cytotoxicity towards normal cells, mean of at least three independent experiments): > 100 µM; IC50 ([2]; source data sheet, single values of three experiments): > 100 µM
